Experimental data as given in patent US4988517A, “Method and composition for inhibiting colon carcinogenesis” (American Health Foundation, priority 1988, dated 1991).

Tests used:
[1] = tested on: carcinogenesis induced by chemicals; settings: experimental animals; cited from earlier work
[2] = General toxicity observation in rats fed the diets; format: in vivo, male F344 rats; settings: 25 ppm in diet
Excerpt: (§1) Experimental Procedure. Male F344 rats received at weaning were quarantined for 10 days and given access to AIN-76A semipurified diet (control diet). They were then be randomly allocated by weight to one of three dietary groups (control diet and 25 ppm BSC and 25 ppm benzylthiocyanate ("BTC") diets). […] Therefore one of our goals was to compare BSC with its sulfur analog BTC. Each dietary group was divided into AOM-treated (27 animals per subgroup) and vehicle-treated (12 animals per subgroup) subgroups and housed in plastic cages with filter tops in the animal holding room under controlled environmental conditions.
(§2) Beginning at 5 wk of age, groups of rats fed the control diet were transferred to diets containing 25 ppm BSC or 25 ppm BTC. At 7 wk of age, the animals in each group, except the vehicle-treated controls, received two weekly s.c. injections of AOM at a dose level of 15 mg/kg body weight/wk. Vehicle controls were treated with an equal volume of normal saline. One wk after AOM or saline treatment, animals receiving the BSC and BTC diets were transferred to the control diets and continued on this diet until the termination of the experiment. The 1-wk delay before transferring to control diet was to ensure complete metabolism and excretion of the carcinogen. The animals receiving the control diet continued on the same diet. The experiment was terminated 34 wk after the last AOM injection.
(§3) Body weights were recorded weekly until the animals reach 16 wk of age and then every 4 wk. Six vehicle-treated animals randomly chosen from each dietary group while they were consuming experimental and control diets were used for tissue and blood plasma glutathione peroxidase analysis.

[3] = tested on: selenium-dependent glutathione peroxidase; experiment: Selenium-dependent glutathione peroxidase activity in tissues of rats fed the diets; format: in vivo, male F344 rats
Experimental: as §3
Biochemical Determination. For the determination of tissue and blood plasma glutathione peroxidase activity, 6 vehicle-treated animals from each dietary group, while the animals were on experimental and control diets, were used. Before sacrificing the animals, blood was obtained under ether anesthesia by cardiac puncture with a syringe. They were then decapitated,and liver, kidneys, small intestine, and colon were rapidly removed. The liver was perfused with ice-cold normal saline. The small intestine and colon were slit open longitudinally and freed from all the contents, and the mucosa was scraped with a microscope glass slide. The liver and kidneys were trimmed free of connective tissue, minced with scissors, and homogenized for 10 s in 3 volumes of buffer, pH 7.3 (0.25 sucrose-10 mM EDTA-50 mM potassium phosphate) using a Brinkman Polytron at low speed. The colonic and small intestinal mucosal scrapings were immediately placed into 3 volumes of the same buffer and homogenized similarly. The homogenates were centrifuged in a Sorvall RC-2B centrifuge at 10,000×g, 4° C., for 20 min. The supernatant was centrifuged in a Beckman Ultracentrifuge at 100,000×g, 4° C., for 1 h. The resulting cytosol fraction was used for determination of glutathione peroxidase activity and protein.
Glutathione peroxidase activity was determined spectrophotometrically according to a modification of the enzyme-coupled assay procedure of Paglia and Valentine. The reaction mixture consisted of 50 mM potassium phosphate buffer (pH 7.0), 1 mM EDTA, 0.2 mM NADPH, 1 enzyme unit/ml oxidized glutathione-reductase, 1 mM glutathione, and 1.5 mM cumene hydroperoxide in a total volume of 1 ml. The cytosol was added to the above mixture and allowed to incubate 5 min. at room temperature. Total glutathione peroxide was measured with cumene hydroperoxide as a substrate. Selenium-dependent glutathione peroxide was measured with tert-butyl hydroperoxide. The reaction was started with the addition of substrate solution. Absorbance was measured at 340 nm, and activity was measured from the slope of the lines as mol NADPH oxidized/min/mg protein. Blank reactions without cytosol were run simultaneously. Protein concentration in the cytosol fraction was measured by the method of Lowry et al. with bovine serum albumin as standard.
(§4) Statistical Analysis. The data on tumor incidence were analyzed statistically by the x^2 method and Fischer's exact probability test, and tumor multiplicity was analyzed by Student's t test. Biochemical results were analyzed by Student's t test.

[4] = tested on: azoxymethane-induced metastasis; experiment: AOM-induced metastasis; format: in vivo, male F344 rats
Excerpt: as §1, §2
(§5) Both AOM-and vehicle-treated animals were sacrificed by CO2 euthanasia. Following laparotomy, the entire stomach, small intestine, and large intestine were resected and opened longitudinally, and the contents flushed with normal saline. The location, number, and size of the colon and small intestinal tumors were noted grossly under the dissection microscope. All other organs, including liver and kidneys, were also examined grossly for tumors. Tissues were fixed in 10% buffered formalin, embedded in paraffin blocks, and processed by routine histological methods with the use of eosin and hematoxylin stains.

[5] = tested on: azoxymethane-induced colon tumors; experiment: AOM-induced colon tumor incidence and multiplicity (initiation phase feeding); format: in vivo, male F344 rats
Excerpt: as §1, §2, §5, §4
(§6) Using the above-identified procedures, a study was made of the effect of feeding benzylselenocyanate and its sulfur analogue, benzylthiocyanate, two (2) weeks before, during and until one (1) week after carcinogen administration (initiation phase) on intestinal carcinogenesis induced by azoxymethane (CAS: 25843-45-2) in male F344 rats.

[6] = tested on: azoxymethane-induced small intestinal tumors; experiment: AOM-induced small intestinal tumor incidence and multiplicity; format: in vivo, male F344 rats
Excerpt: as §1, §2, §5, §4, §6

[7] = tested on: non-selenium-dependent glutathione peroxidase; experiment: Non-selenium-dependent glutathione peroxidase activity in tissues of rats fed the diets; format: in vivo, male F344 rats; settings: among the dietary groups
Experimental: as §3
Biochemical Determination. For the determination of tissue and blood plasma glutathione peroxidase activity, 6 vehicle-treated animals from each dietary group, while the animals were on experimental and control diets, were used. Before sacrificing the animals, blood was obtained under ether anesthesia by cardiac puncture with a syringe. They were then decapitated,and liver, kidneys, small intestine, and colon were rapidly removed. The liver was perfused with ice-cold normal saline. […]
Glutathione peroxidase activity was determined spectrophotometrically according to a modification of the enzyme-coupled assay procedure of Paglia and Valentine. […] Total glutathione peroxide was measured with cumene hydroperoxide as a substrate. Selenium-dependent glutathione peroxide was measured with tert-butyl hydroperoxide. […] Absorbance was measured at 340 nm, and activity was measured from the slope of the lines as mol NADPH oxidized/min/mg protein. […] Protein concentration in the cytosol fraction was measured by the method of Lowry et al. with bovine serum albumin as standard.

[8] = Body weights of male F344 rats fed the experimental diets; format: in vivo; settings: for Body wt, Initial (Wk 0) / Body wt, wk 4 / Body wt, wk 8 / Body wt, wk 16 / Body wt, wk 22 / Body wt, wk 30 / Body wt, wk 37 (at termination): 25 ppm in diet, Mean ± SD
Excerpt: as §1, §2, §3

[9] = tested on: azoxymethane-induced ear duct tumors; experiment: AOM-induced ear duct tumor incidence; format: in vivo, male F344 rats; settings: 25 ppm in diet
Excerpt: as §1, §2
as §5, with “Tissues were fixed in 10% buffered formalin, embedded in paraffin blocks, and processed by routine histological methods with the use of eosin and hematoxylin stains.” left out
as §4

[10] = cited from earlier work
[11] = 25 ppm in diet 5 wk, Mean ± SE (n = 6)
[12] = 25 ppm in diet 2 wk before to 1 wk after AOM
[13] = 25 ppm in diet, 27 (BSC) or 26 (BTC) animals/group

N#CSCc1ccccc1 [BTC, benzylthiocyanate, reference compound]
Inhibition of chemically induced carcinogenesis [1]: inhibitor of carcinogenesis induced by chemicals in experimental animals | Death after AOM treatment ([2]; 2 wk after AOM treatment): One | Evidence of toxicity in animals fed the diet [2]: no evidence of toxicity | Selenium-dependent glutathione peroxidase activity, Kidney [3, 11]: 0.64 0.30 μmol NADPH oxidized/min/mg protein | Selenium-dependent glutathione peroxidase activity, Liver [3, 11]: 1.90 0.66 μmol NADPH oxidized/min/mg protein | Selenium-dependent glutathione peroxidase activity, Plasma [3, 11]: 0.69 0.16 μmol NADPH oxidized/min/mg protein | Selenium-dependent glutathione peroxidase activity, Colon ([3]; 25 ppm in diet 5 wk, colonic mucosa, Mean ± SE (n = 6)): 0.23 0.06 μmol NADPH oxidized/min/mg protein | Selenium-dependent glutathione peroxidase activity, Small intestine ([3]; 25 ppm in diet 5 wk, small intestinal mucosa, Mean ± SE (n = 6)): 0.20 0.10 μmol NADPH oxidized/min/mg protein | Selenium-dependent glutathione peroxidase activity (in words) ([3]; liver and plasma): not affected | No. of animals with metastasis ([4]; 25 ppm in diet, AOM treated): 0 No. of animals | AOM-induced metastasis (in words) ([4]; several organs): none of the animals in BSC and BTC diet groups developed metastasis | Colon tumor incidence, Adenocarcinoma [5, 12]: 31 % of animals with tumors | Colon tumor incidence, Adenoma [5, 12]: 62 % of animals with tumors | Colon tumor incidence, Total (adenomas plus adenocarcinomas) [5, 12]: 69 % of animals with tumors | Number of animals with colon tumors, Adenocarcinoma [5, 13]: 8 number of animals | Number of animals with colon tumors, Adenoma [5, 13]: 16 number of animals | Number of animals with colon tumors, Total [5, 13]: 18 number of animals | Colon tumor multiplicity, Adenocarcinoma ([5]; 25 ppm in diet, Mean ± SD): 0.35 ± 0.4 no. of tumors/animals | Colon tumor multiplicity, Adenoma ([5]; 25 ppm in diet, Mean ± SD): 1.27 ± 1.3 no. of tumors/animals | Colon tumor multiplicity, Total ([5]; 25 ppm in diet, Mean ± SD): 1.62 ± 1.3 no. of tumors/animals | Number of tumors per group, colon Adenocarcinoma ([5]; 25 ppm in diet, in parentheses): 9 number of tumors per group | Incidence of total colon tumors (in words) ([5]; vs control diet): no differences in colon tumor incidences between the animals fed the control diet and BTC diet | Small intestinal tumor incidence, Adenocarcinoma [6, 12]: 38 % of animals with tumors | Small intestinal tumor incidence, Adenoma [6, 12]: 12 % of animals with tumors | Small intestinal tumor incidence, Total [6, 12]: 38 % of animals with tumors | Number of animals with small intestinal tumors, Adenocarcinoma [6, 13]: 10 number of animals | Number of animals with small intestinal tumors, Adenoma [6, 13]: 3 number of animals | Number of animals with small intestinal tumors, Total [6, 13]: 10 number of animals | Small intestinal tumor multiplicity, Adenocarcinoma ([6]; 25 ppm in diet, Mean ± SD): 0.34 0.6 no. of tumors/animal | Small intestinal tumor multiplicity, Adenoma ([6]; 25 ppm in diet, Mean ± SD): 0.12 0.3 no. of tumors/animal | Small intestinal tumor multiplicity, Total ([6]; 25 ppm in diet, Mean ± SD): 0.46 0.6 no. of tumors/animal | Non-selenium-dependent glutathione peroxidase activity (in words) [7]: no differences in the activity of non-selenium-dependent glutathione peroxidase activity among the dietary groups | Body weights of animals fed experimental vs control diets ([8]; AOM or vehicle treated, in words): comparable | Body wt, Initial (Wk 0) ([8]; AOM treated): 40 ± 3 g | Body wt, wk 4 ([8]; AOM treated): 180 ± 10 g | Body wt, wk 8 ([8]; AOM treated): 281 ± 18 g | Body wt, wk 16 ([8]; AOM treated): 356 ± 21 g | Body wt, wk 22 ([8]; AOM treated): 394 ± 22 g | Body wt, wk 30 ([8]; AOM treated): 432 ± 24 g | Body wt, wk 37 (at termination) ([8]; AOM treated): 459 ± 19 g | Body wt, Initial (Wk 0) ([8]; Vehicle treated): 40 ± 3 g | Body wt, wk 4 ([8]; Vehicle treated): 182 ± 10 g | Body wt, wk 8 ([8]; Vehicle treated): 286 ± 18 g | Body wt, wk 16 ([8]; Vehicle treated): 362 ± 21 g | Body wt, wk 22 ([8]; Vehicle treated): 406 ± 22 g | Body wt, wk 30 ([8]; Vehicle treated): 449 ± 24 g | Body wt, wk 37 (at termination) ([8]; Vehicle treated): 470 ± 24 g | Number of animals with ear duct tumors ([9]; 27 (BSC) or 26 (BTC) animals/group): 5 animals | % of animals with ear duct tumors ([9]; AOM treated): 19 % of animals

[Se] [selenium]
Reproductive and teratogenic effects ([10]; animals and humans): Toxic reproductive and teratogenic effects | Toxic chronic feeding level ([10]; chronic feeding, animals): 5 to 10 ppm
